How the values were obtained:
CT26 tumor cells = settings: AH1 in IFA, P60 50 nanomol/mice/day i.p. day 0 to day 9, 5 × 10^5 cells; cited from earlier work
Treg cells = assay: Treg pre-treated with peptide, then Treg suppression assay; type: cell-based; settings: Treg incubated with peptide at 20 μM for 24 hours, washed
Description: FOXP3 is critical for the development and function of Tregs, but also, FOXP3 can be transiently expressed in effector T cells after TCR stimulation leading to hyporesponsiveness of the effector T cell. […] We speculate that the Foxp3 inhibitory peptides may work at two levels: (i) reducing Treg function and (ii) releasing the brake of FOXP3 transient expression on effector T cells. Thus, we studied the effect of CM-1315 in T cell proliferation and IL-2 and IFN-γ production in effector T cells in response to anti-CD3 stimulation. The original P60, the optimized peptide CM-1315 and a control peptide were tested. […] We also studied the effect of the peptides directly in Tregs. Thus, freshly isolated Treg cells were pre-treated with the peptides for 24 h, and after extensive washing, they were used in conventional Treg suppression assay in coculture with effector T cells and anti-CD3 stimulation.
Supplementary Figure 4: Effect of Foxp3 inhibitory peptides in effector T cells alone. […] T cell proliferation (A) and IL-2 and IFN-γ (B and C) production in response to anti-CD3 stimulation was measured by 3H-thymidine incorporation and by ELISA respectively.
Supplementary Figure 5: Effect of FOXP3 inhibitory peptides in Treg cells. […] T cell proliferation was measured by 3H-thymidine incorporation assay. […]

[1] = system: FOXP3-6His (native FOXP3, 1-421); assay: Surface plasmon resonance, peptide binding to FOXP3-coated chip; settings: FOXP3 coated on chip; mutants compared with original P60
Description: Using truncated versions of FOXP3, we attempted to identify the FOXP3 domain interacting with peptide P60, described previously by or group as a FOXP3 inhibitory peptide. Thus, besides native FOXP3 we prepared the deletion mutants FOXP3 (1-331) (lacking the C-terminus of FOXP3), FOXP3 (177-421) (lacking the N-terminus) and FOXP3 (1-177) (encompassing only the N-terminus of FOXP3) (Figure 1A). They were coated on a chip for SPR experiments.
Screening of peptide binding to FOXP3 was performed by surface plasmon resonance (SPR) using ProteOn XPR36 (Bio-Rad, Hercules CA, USA) optical biosensor. Recombinant protein FOXP3-6His and the indicated truncated versions of FOXP3 were produced and purified from E-coli and immobilized covalently onto a GLM sensor chip (Bio-Rad) using sulfo-NHS and EDC (Bio-Rad) coupling reagents. After protein immobilization, chip surface was treated with ethanolamine to deactivate the excess of reactive esters. Individual peptide solutions (1–20 μM) were injected by triplicate in running buffer (Phosphate buffered saline, 0.005% (v/v) Tween 20, pH 7.4) at a flow of 30 μl/min. The interspot signal (obtained in the chip surface not immobilized with protein) was used as reference.

murine Treg cells = type: cell-based, BALB/c mice
Description: Results shown in Figures 1–3 correspond to cell-free assays where peptides can interact directly with its corresponding protein partner. However, FOXP3 binding peptides need to enter into the cell in order to inhibit FOXP3 functions. Once we identified some mutants with higher capacity to bind FOXP3, we studied their capacity to inhibit the suppressor activity of natural Tregs in vitro. Thus, we activated effector T cells with anti-CD3 monoclonal antibody in the presence of Tregs, and analyzed the capacity of each peptide to restore T cell proliferation inhibited by Treg cells. […] Indeed, when results from the point-variant screening are represented as a heat map, it is clear that introduction of an alanine at positions 2, 5 and 11 improved activity of the original P60, whereas alanine mutations at positions 1, 7, 8, 9, 10 and 12 are detrimental (Figure 4C).
Isolation of murine CD4^+CD25^+, and CD4^+CD25^− T-cells was performed from murine spleen cells by using murine regulatory T-cell isolation kit (Miltenyi Biotec, Bergisch Gladbach, Germany) according to manufacturer's instructions. The purity of the resulting T-cell populations was confirmed to be > 95% by flow cytometry.
Inhibition of murine T regulatory cell function was measured in an in vitro assay of T-cell stimulation. CD25+ depleted spleen cells (10^5 cells/well) from BALB/c mice were stimulated in vitro with 2, 5 μg/ml of anti-mouse CD3 antibody (Pharmingen) in the presence/absence of purified Treg cells (10^4 cells/well). T-cell proliferation was measured 3 days later as previously described.

FOXP3/AML1 interaction = biological target: T1, FOXP3/AML1 interaction (Homo sapiens, UniProt Q9BZS1); assay: AlphaScreen FOXP3/AML1 heterodimerization assay; type: biochemical
T1 sequence (Q9BZS1 1-431): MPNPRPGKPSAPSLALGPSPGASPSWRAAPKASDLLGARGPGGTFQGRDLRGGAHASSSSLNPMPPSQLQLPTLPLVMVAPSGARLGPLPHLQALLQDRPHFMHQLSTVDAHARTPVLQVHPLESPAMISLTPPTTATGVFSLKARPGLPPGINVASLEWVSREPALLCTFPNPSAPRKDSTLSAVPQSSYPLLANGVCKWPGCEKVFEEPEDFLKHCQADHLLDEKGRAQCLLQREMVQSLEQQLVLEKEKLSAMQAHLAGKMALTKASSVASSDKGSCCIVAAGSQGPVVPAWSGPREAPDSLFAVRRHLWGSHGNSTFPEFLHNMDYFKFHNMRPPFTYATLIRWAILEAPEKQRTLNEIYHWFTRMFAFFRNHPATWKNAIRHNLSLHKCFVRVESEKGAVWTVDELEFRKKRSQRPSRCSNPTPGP
Description: AML1 is required for IL-2 and IFN-γ gene expression in conventional CD4+ T cells and its interaction with FOXP3 is needed for the immunosuppressive activity of Tregs. On the other hand, it has been described that the leucine zipper region is necessary and sufficient to mediate FOXP3 homo-dimerization, which is required for its function as a transcriptional regulator [13, 15, 20]. Thus, since P60 binds to this FOXP3 intermediate region, we analyzed if it could act as a decoy molecule to inhibit FOXP3 homodimerization or the FOXP3-AML1 heterodimerization. The capacity of FOXP3 to homodimerize was measured using the […] assay platform AlphaScreen™ (Perkin Elmer). Previous protein-cross titration experiment using different concentrations of FOXP3-6His (from 1000 to 0 nM) and GST-FOXP3 (from 300 to 0 nM) allowed us to define the optimal protein concentrations to analyze FOXP3 homodimerization (Figure 2A). […] We also tested if GST tagged FOXP3 was able to interact with AML1 protein tagged with 6 His at the N-terminus. As shown in the cross titration experiments in Figure 2C, a specific FOXP3-AML1 heterodimerization was visualized as an increase in the AlphaScreen signal.
FOXP3/AML1 heterodimerization, as well as FOXP3/FOXP3 homodimerization were analyzed by Alphascreen technology according to the manufacturer's instructions (Perkin Elmer, Benelux) as previously described.

H-RDFQSFRKMWPFFAM-OH [P60]
Protection against CT26 tumor challenge (in words) (CT26 tumor cells): protected mice from CT26 tumor challenge | Inhibition of suppressive activity of pre-treated Treg (in words) (Treg cells): not able to inhibit significantly Treg cells, although some reversal of suppression was observed | FOXP3 binding capacity by SPR (in words) [1]: bound with high affinity | IC50 (murine Treg cells): 38.3 µM | Inhibition of FOXP3-AML1 heterodimerization (in words) (FOXP3/AML1 interaction): able to reduce the signal in a dose dependent manner
